# From ChEMBL document CHEMBL4673185 (RSC Med Chem, 2020)
# pEC50: −log10 of the molar value. Residues, ends and D or L forms follow the SMILES beside them.
# Molecular target: T1, Acid-sensing ion channel 3 (Rattus norvegicus, UniProt O35240)
# T1 sequence (O35240 whole entry): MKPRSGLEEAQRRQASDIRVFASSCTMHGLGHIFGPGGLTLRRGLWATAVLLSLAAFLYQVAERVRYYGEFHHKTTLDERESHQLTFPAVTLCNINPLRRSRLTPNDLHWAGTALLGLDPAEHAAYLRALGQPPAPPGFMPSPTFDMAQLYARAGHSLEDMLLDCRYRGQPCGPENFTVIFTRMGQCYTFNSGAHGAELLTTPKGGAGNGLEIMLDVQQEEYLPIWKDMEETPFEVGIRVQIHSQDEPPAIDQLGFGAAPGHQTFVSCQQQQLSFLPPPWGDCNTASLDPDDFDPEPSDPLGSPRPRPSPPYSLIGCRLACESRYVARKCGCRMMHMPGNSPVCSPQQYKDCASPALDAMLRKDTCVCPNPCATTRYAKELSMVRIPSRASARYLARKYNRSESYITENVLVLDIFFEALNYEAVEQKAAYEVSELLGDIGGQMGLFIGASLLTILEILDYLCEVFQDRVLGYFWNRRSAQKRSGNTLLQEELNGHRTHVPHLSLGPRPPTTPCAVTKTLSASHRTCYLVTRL
# Assay: Modulation of rat ASIC3 expressed in Xenopus laevis oocytes at -70 mV holding potential by two-electrode voltage clamp method
# Assay type: cell-based
compound,measurement,value
N=C(N)NCCC[C@H](NC(=O)[C@@H]1CCCN1C(=O)[C@@H](N)CCCNC(=N)N)C(=O)N[C@@H](Cc1ccccc1)C(=O)O (H-RPRF-OH),pEC50,5.52
